Measurements as given in ChEMBL document CHEMBL4507311, “Data for DCP probe A-1155463” (2021).

Columns and labels:
[1] = target: Rho-associated protein kinase 2 (Homo sapiens) (UniProt O75116); conditions: Compound concentration 1000.0 nM
[2] = target: Serine/threonine-protein kinase/endoribonuclease IRE1 (Homo sapiens) (UniProt O75460); conditions: Compound concentration 1000.0 nM
[3] = system: Tyrosine-protein kinase ABL1 (Homo sapiens), P00519 [T315I]; conditions: Compound concentration 1000.0 nM
[4] = target: Mitotic checkpoint serine/threonine-protein kinase BUB1 (Homo sapiens) (UniProt O43683); conditions: Compound concentration 1000.0 nM
[5] = target: Cyclin-dependent kinase-like 5 (Homo sapiens) (UniProt O76039); conditions: Compound concentration 1000.0 nM
[6] = target: G protein-coupled receptor kinase 3 (Homo sapiens) (UniProt P35626); conditions: Compound concentration 1000.0 nM
[7] = system: Proto-oncogene tyrosine-protein kinase receptor Ret (Homo sapiens), P07949 [V804L]; conditions: Compound concentration 1000.0 nM
Histamine H3 receptor = Histamine H3 receptor (Homo sapiens, UniProt Q9Y5N1); conditions: Compound concentration 10.0 uM
[8] = target: Serine/threonine-protein kinase N2 (Homo sapiens) (UniProt Q16513); conditions: Compound concentration 1000.0 nM
[9] = target: Serine/threonine-protein kinase TAO1 (Homo sapiens) (UniProt Q7L7X3); conditions: Compound concentration 1000.0 nM
[10] = target: Mitogen-activated protein kinase kinase kinase 19 (Homo sapiens) (UniProt Q56UN5); conditions: Compound concentration 1000.0 nM
[11] = target: Mitogen-activated protein kinase kinase kinase kinase 2 (Homo sapiens) (UniProt Q12851); conditions: Compound concentration 1000.0 nM
[12] = target: Ribosomal protein S6 kinase alpha-4 (Homo sapiens) (UniProt O75676); conditions: Compound concentration 1000.0 nM
[13] = system: Tyrosine-protein kinase ABL1 (Homo sapiens), P00519 [Q252H]; conditions: Compound concentration 1000.0 nM
[14] = target: Phosphorylase b kinase gamma catalytic chain, skeletal muscle/heart isoform (Homo sapiens) (UniProt Q16816); conditions: Compound concentration 1000.0 nM
[15] = target: Serine/threonine-protein kinase haspin (Homo sapiens) (UniProt Q8TF76); conditions: Compound concentration 1000.0 nM
[16] = target: Serine/threonine-protein kinase RIO2 (Homo sapiens) (UniProt Q9BVS4); conditions: Compound concentration 1000.0 nM
[17] = target: Epidermal growth factor receptor (Homo sapiens) (UniProt P00533); conditions: Compound concentration 1000.0 nM
[18] = target: Mitogen-activated protein kinase 11 (Homo sapiens) (UniProt Q15759); conditions: Compound concentration 1000.0 nM
[19] = target: Serine/threonine-protein kinase 16 (Homo sapiens) (UniProt O75716); conditions: Compound concentration 1000.0 nM
[20] = target: Serine/threonine-protein kinase 17A (Homo sapiens) (UniProt Q9UEE5); conditions: Compound concentration 1000.0 nM
[21] = target: Delta-type opioid receptor (Homo sapiens, UniProt P41143); conditions: Compound concentration 10.0 uM
[22] = target: Sodium-dependent noradrenaline transporter (Homo sapiens) (UniProt P23975); conditions: Compound concentration 10.0 uM
[23] = target: Casein kinase I isoform gamma-1 (Homo sapiens) (UniProt Q9HCP0); conditions: Compound concentration 1000.0 nM
[24] = target: RAC-alpha serine/threonine-protein kinase (Homo sapiens) (UniProt P31749); conditions: Compound concentration 1000.0 nM
[25] = target: Serine/threonine-protein kinase SIK1 (Homo sapiens) (UniProt P57059); conditions: Compound concentration 1000.0 nM
[26] = target: Serine/threonine-protein kinase TAO3 (Homo sapiens) (UniProt Q9H2K8); conditions: Compound concentration 1000.0 nM
[27] = target: T1, 5-hydroxytryptamine receptor 3A (Homo sapiens) (UniProt P46098); conditions: Compound concentration 10.0 uM
T1 sequence (whole entry): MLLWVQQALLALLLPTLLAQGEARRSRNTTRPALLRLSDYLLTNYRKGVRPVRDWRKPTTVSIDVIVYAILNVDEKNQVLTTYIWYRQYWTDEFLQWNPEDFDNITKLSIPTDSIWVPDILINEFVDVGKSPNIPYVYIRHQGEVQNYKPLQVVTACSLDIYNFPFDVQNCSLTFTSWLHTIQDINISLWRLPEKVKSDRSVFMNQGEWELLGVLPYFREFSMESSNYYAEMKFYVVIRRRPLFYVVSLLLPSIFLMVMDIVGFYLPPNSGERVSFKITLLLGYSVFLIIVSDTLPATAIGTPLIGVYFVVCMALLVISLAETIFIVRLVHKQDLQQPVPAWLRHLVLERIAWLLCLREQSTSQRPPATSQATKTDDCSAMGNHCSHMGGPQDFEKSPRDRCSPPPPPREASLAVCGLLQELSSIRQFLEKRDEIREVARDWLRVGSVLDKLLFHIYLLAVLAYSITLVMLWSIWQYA

[28] = target: Mitogen-activated protein kinase 12 (Homo sapiens) (UniProt P53778); conditions: Compound concentration 1000.0 nM
[29] = target: Serine/threonine-protein kinase MRCK alpha (Homo sapiens) (UniProt Q5VT25); conditions: Compound concentration 1000.0 nM
[30] = system: Epidermal growth factor receptor (Homo sapiens), P00533 [L861Q]; conditions: Compound concentration 1000.0 nM
[31] = target: Serine/threonine-protein kinase Nek5 (Homo sapiens) (UniProt Q6P3R8); conditions: Compound concentration 1000.0 nM
[32] = target: Mitogen-activated protein kinase 6 (Homo sapiens) (UniProt Q16659); conditions: Compound concentration 1000.0 nM
[33] = target: SRSF protein kinase 2 (Homo sapiens) (UniProt P78362); conditions: Compound concentration 1000.0 nM
[34] = target: Ephrin type-A receptor 5 (Homo sapiens) (UniProt P54756); conditions: Compound concentration 1000.0 nM
[35] = target: Myosin light chain kinase 2, skeletal/cardiac muscle (Homo sapiens) (UniProt Q9H1R3); conditions: Compound concentration 1000.0 nM
[36] = target: Tyrosine-protein kinase SYK (Homo sapiens) (UniProt P43405); conditions: Compound concentration 1000.0 nM
[37] = target: Tyrosine-protein kinase CSK (Homo sapiens) (UniProt P41240); conditions: Compound concentration 1000.0 nM
[38] = target: Mast/stem cell growth factor receptor Kit (Homo sapiens) (UniProt P10721); conditions: Compound concentration 1000.0 nM

Serine/threonine-protein kinase/endoribonuclease IRE1 (Homo sapiens), sequence (O75460 19-977 limits assumed): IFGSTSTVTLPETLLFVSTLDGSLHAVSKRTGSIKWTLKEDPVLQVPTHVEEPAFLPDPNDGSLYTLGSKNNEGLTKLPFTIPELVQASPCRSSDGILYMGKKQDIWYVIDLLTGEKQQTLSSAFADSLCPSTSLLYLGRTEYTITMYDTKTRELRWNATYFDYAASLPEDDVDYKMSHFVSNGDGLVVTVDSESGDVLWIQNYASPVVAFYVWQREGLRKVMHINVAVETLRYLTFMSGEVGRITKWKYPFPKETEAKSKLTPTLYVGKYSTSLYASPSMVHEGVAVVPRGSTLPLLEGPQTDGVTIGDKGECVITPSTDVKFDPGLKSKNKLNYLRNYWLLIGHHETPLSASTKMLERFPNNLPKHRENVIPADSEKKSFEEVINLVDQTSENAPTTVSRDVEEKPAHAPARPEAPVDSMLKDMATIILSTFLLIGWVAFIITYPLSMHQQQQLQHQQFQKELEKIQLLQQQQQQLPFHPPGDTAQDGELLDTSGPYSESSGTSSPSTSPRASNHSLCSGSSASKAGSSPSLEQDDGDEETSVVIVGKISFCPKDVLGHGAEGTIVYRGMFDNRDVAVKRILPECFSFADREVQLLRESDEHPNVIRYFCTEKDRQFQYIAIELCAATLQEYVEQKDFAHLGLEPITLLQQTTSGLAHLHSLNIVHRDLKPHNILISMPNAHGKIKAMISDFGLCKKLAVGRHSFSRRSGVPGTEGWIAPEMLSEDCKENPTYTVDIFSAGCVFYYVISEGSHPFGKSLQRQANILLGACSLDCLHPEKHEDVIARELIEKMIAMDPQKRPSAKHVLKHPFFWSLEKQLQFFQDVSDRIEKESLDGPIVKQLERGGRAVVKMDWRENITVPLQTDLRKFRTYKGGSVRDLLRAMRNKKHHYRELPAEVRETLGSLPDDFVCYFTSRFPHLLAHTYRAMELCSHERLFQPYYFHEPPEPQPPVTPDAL
Rho-associated protein kinase 2 (Homo sapiens), sequence (O75116 whole entry, looked up): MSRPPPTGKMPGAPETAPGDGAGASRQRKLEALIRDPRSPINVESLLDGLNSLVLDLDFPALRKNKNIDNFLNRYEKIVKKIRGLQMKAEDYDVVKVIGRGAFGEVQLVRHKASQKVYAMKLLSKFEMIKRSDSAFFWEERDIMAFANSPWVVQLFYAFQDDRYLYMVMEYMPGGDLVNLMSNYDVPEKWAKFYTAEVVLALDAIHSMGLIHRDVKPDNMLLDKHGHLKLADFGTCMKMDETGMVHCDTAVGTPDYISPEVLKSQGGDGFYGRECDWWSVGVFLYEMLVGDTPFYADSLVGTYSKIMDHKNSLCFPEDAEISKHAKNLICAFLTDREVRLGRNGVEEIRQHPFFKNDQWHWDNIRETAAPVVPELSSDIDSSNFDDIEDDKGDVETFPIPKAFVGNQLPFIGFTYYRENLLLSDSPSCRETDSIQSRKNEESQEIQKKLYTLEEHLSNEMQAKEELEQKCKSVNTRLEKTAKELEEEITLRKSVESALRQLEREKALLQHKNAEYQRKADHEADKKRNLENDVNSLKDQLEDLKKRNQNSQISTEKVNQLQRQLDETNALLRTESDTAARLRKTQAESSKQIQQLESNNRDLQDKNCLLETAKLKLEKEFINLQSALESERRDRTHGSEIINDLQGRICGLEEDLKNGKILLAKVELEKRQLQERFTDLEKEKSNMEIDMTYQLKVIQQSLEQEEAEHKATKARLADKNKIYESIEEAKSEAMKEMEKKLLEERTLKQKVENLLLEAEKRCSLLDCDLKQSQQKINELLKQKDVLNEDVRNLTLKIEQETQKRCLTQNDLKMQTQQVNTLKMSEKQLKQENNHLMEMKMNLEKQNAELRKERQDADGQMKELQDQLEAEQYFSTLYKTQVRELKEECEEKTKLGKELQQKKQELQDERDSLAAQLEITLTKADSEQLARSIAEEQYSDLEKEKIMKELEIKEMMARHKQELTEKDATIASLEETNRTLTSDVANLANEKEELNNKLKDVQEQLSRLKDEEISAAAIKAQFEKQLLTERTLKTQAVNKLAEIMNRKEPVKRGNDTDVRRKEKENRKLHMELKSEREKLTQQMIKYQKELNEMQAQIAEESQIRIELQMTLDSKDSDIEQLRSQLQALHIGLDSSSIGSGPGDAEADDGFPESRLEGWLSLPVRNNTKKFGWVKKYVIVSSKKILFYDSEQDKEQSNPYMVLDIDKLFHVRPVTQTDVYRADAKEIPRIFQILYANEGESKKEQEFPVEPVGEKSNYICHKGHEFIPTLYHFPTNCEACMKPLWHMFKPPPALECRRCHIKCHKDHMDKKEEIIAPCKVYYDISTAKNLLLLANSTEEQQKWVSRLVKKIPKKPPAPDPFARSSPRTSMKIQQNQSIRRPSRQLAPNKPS
Tyrosine-protein kinase CSK (Homo sapiens), sequence (P41240 2-450 limits assumed): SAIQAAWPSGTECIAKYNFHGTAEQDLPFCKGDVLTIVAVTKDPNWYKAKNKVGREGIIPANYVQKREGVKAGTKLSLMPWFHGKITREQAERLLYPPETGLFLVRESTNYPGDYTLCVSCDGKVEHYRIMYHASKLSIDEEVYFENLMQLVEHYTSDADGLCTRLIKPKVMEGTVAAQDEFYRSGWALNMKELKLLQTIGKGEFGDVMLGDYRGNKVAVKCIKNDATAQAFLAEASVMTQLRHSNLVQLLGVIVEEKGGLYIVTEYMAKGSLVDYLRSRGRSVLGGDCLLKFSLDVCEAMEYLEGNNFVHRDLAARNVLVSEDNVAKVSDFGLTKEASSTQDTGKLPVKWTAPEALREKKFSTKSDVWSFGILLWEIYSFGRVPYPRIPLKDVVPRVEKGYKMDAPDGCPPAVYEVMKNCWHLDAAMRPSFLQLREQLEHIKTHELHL
Ribosomal protein S6 kinase alpha-4 (Homo sapiens), sequence (O75676 whole entry, looked up): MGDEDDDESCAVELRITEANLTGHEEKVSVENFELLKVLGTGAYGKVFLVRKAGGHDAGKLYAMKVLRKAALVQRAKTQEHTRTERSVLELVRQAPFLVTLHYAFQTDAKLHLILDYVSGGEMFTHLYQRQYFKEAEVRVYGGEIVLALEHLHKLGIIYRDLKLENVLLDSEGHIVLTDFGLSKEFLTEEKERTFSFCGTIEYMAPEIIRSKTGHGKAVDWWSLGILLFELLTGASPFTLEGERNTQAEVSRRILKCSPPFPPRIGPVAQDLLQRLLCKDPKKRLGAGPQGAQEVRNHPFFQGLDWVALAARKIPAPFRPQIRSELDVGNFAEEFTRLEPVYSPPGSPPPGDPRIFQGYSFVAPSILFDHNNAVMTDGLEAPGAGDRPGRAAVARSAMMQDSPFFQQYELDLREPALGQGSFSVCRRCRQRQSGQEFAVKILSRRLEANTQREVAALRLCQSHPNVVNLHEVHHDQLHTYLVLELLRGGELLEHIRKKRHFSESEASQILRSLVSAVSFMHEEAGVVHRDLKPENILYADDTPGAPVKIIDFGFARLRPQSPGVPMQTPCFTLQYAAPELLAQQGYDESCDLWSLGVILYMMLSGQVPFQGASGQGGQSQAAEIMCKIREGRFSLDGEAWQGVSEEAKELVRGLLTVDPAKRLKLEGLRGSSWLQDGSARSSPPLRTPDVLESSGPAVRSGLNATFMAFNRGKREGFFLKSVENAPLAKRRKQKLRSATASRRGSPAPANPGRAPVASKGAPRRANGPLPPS
Serine/threonine-protein kinase TAO1 (Homo sapiens), sequence (Q7L7X3 whole entry): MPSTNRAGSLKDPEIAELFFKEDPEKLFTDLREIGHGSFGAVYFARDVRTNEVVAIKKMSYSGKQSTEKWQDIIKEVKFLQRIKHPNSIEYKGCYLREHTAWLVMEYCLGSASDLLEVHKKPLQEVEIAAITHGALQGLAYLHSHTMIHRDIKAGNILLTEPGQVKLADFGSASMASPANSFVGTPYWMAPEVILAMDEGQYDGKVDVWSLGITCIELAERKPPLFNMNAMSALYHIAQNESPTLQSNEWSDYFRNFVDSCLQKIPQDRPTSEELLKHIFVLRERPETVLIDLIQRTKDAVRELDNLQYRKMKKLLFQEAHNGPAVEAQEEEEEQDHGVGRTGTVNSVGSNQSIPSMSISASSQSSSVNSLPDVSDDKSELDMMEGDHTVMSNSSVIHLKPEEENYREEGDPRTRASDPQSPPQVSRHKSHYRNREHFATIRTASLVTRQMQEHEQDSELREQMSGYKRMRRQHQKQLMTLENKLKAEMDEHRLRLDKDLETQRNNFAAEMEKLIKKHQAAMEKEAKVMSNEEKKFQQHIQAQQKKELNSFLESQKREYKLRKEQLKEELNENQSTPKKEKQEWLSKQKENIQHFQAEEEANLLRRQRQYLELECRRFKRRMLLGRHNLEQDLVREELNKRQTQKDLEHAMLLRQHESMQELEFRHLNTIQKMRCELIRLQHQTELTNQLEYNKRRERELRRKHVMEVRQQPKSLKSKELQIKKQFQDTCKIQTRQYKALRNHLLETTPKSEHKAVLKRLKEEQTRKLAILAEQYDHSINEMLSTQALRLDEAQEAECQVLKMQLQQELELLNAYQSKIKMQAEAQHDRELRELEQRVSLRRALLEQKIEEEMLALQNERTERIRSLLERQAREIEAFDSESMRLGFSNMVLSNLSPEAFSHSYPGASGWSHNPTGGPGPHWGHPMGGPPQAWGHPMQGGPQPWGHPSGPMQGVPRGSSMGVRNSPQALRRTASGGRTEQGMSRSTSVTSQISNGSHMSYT
Mitogen-activated protein kinase 12 (Homo sapiens), sequence (P53778 whole entry): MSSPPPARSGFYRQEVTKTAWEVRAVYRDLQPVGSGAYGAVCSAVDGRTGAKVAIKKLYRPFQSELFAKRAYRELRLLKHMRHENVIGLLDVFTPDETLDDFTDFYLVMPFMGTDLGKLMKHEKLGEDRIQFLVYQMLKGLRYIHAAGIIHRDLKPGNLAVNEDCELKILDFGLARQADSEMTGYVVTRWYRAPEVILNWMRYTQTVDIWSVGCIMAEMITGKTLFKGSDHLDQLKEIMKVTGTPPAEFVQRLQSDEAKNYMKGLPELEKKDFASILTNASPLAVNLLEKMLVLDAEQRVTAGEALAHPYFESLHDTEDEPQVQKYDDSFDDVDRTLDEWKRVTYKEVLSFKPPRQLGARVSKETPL

Compound `CN(C)CC#Cc1ccc(OCCCc2sc(N3CCc4cccc(C(=O)Nc5nc6ccccc6s5)c4C3)nc2C(=O)O)c(F)c1` [A-1155463] has a residual activity [1] of 100%, a residual activity [2] of 84% and a residual activity [3] of 92%. It also gave a residual activity [4] of 81%, a residual activity [5] of 96% and a residual activity [6] of 92%. For the same compound, the residual activity [7] was 100%, the inhibition (Histamine H3 receptor) was 53.3% and the residual activity [8] was 100%. For the same compound, the residual activity [9] was 100%, the residual activity [10] was 95% and the residual activity [11] was 100%. It also gave a residual activity [12] of 96%, a residual activity [13] of 88% and a residual activity [14] of 98%. The residual activity [15] was 100%, the residual activity [16] was 100% and the residual activity [17] was 87%. It also gave a residual activity [18] of 100%, a residual activity [19] of 92% and a residual activity [20] of 85%. For the same compound, the inhibition [21] was 54.6%, the inhibition [22] was 42.9% and the residual activity [23] was 91%. For the same compound, the residual activity [24] was 100%, the residual activity [25] was 100% and the residual activity [26] was 100%. The inhibition [27] was 85.4%, the residual activity [28] was 89% and the residual activity [29] was 97%. The residual activity [30] was 100%, the residual activity [31] was 87% and the residual activity [32] was 94%. The residual activity [33] was 100%, the residual activity [34] was 98% and the residual activity [35] was 100%. It also gave a residual activity [36] of 100%, a residual activity [37] of 90% and a residual activity [38] of 97%.
